According to US6150385A, “1,3,4-thiadiazoles useful for the treatment of CMV infections” (Pharmacia & Upjohn Company, priority 1999, dated 2000):

Target: T1, HCMV polymerase (Human cytomegalovirus, UniProt P08546)
T1 construct: made in house; host or cells: SF-9 insect cells infected with recombinant baculovirus
Assay: HCMV polymerase assay (scintillation proximity assay)
Type: biochemical
Details: percentage of inhibition at 25 μM concentration in CMV polymerase assay
Experimental: The compounds of the present invention are tested in an polymerase assay to show activity described below, which is indicative of a compound's activity and thus of its use as an anti-viral agent.
The HCMV polymerase assay is performed using a scintillation proximity assay (SPA) as described in several references, such as N. D. Cook, et al., Pharmaceutical Manufacturing International, pages 49-53 (1992); K. Takeuchi, Laboratory Practice, September issue (1992); U.S. Pat. No. 4,568,649 (1986); which are incorporated by reference herein. Reactions are performed in 96-well plates. The assay is conducted in 100 μl volume with 5.4 mM HEPES (pH 7.5), 11.7 mM KCl, 4.5 mM MgCl2, 0.36 mg/ml BSA, and 90 nM ^3 H-dTTP. Assays are run with and without CHAPS, (3-[(3-Cholamidopropyl)-dimethylammonio]-1-propanesulfonate) at a final concentration of 2 mM. HCMV is diluted in enzyme dilution buffer containing 50% glycerol, 250 mM NaCl, 10 mM HEPES (pH 7.5), 100 μg/ml BSA, and 0.01% sodium azide. The HCMV polymerase, which is expressed in recombinant baculovirus-infected SF-9 cells and purified according to literature procedures, is added at 10% (or 10 μl) of the final reaction volume, i.e., 100 μl. Compounds are diluted in 50% DMSO and 10 μl are added to each well. Control wells contain an equivalent concentration of DMSO. Unless noted otherwise, reactions are initiated via the addition of 6 nM biotinylated poly(dA)-oligo(dT) template/primer to reaction mixtures containing the enzyme, substrate, and compounds of interest. Plates are incubated in a 25° C. or 37° C. H2 O bath and terminated via the addition of 40 μl/reaction of 0.5 M EDTA (pH 8) per well. Reactions are terminated within the time-frame during which substrate incorporation is linear and varied depending upon the enzyme and conditions used, i.e., 30 min. for HCMV polymerase. Ten μl of streptavidin-SPA beads (20 mg/ml in PBS/10% glycerol) are added following termination of the reaction. Plates are incubated 10 min. at 37° C., then equilibrated to room temperature, and counted on a Packard Topcount.
In TABLE 1, "MS" refers to mass spectral data, "% inhib" refers to percentage of inhibition at 25 μM concentration in CMV polymerase assay.

T1 sequence (P08546 whole entry): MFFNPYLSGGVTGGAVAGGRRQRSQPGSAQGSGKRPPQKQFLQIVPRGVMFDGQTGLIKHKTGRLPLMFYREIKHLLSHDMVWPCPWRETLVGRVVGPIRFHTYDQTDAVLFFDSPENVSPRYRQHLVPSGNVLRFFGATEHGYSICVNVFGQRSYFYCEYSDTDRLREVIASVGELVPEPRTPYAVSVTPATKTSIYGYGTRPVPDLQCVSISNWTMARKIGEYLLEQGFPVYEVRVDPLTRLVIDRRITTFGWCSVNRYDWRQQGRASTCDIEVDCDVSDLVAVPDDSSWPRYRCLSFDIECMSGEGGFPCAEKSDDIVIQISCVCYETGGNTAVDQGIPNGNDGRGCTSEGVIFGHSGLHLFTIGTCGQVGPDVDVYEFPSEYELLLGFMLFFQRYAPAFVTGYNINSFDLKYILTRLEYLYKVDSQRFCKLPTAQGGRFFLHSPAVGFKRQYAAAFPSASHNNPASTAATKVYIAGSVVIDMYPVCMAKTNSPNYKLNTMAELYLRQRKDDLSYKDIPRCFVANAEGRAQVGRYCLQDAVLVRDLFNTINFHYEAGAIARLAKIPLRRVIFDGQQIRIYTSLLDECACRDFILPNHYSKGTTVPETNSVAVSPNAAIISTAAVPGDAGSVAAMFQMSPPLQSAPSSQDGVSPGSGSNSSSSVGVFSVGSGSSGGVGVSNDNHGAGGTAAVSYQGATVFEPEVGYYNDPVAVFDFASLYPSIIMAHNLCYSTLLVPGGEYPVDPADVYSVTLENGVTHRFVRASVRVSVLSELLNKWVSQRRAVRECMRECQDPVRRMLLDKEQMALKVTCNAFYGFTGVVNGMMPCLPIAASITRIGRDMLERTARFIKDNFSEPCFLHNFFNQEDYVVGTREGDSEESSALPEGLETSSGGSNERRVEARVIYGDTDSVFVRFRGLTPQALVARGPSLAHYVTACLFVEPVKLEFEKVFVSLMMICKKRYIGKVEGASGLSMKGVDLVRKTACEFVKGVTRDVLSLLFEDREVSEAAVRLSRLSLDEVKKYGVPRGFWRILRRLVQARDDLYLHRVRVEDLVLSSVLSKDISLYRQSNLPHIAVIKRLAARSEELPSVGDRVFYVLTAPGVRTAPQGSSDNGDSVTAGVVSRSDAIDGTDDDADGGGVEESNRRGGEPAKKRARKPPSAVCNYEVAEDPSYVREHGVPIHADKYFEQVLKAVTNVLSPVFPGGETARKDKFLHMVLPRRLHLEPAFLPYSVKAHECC

inhibition at 25 µM	SMILES
100%	CCCCCCCC/C=C/CCCCCCCC(=O)Nc1nnc(NCCCNC2CCCCC2)s1 [compound 1, (E)-N-(5-{[3-(cyclohexylamino)propyl]amino}-1,3,4-thiadiazol-2-yl)-9-octadecenamide]
100%	O=C(Nc1nnc(NCCCNC2CCCCC2)s1)c1ccc2c(c1)C(=O)OC2=O [compound 2, N-(5-{[3-(cyclohexylamino)propyl]amino}-1,3,4-thiadiazol-2-yl)-1,3-dioxo-1,3-dihydro-2-benzofuran-5-carboxamide]
100%	O=C(Nc1nnc(NCC2CCCCC2)s1)c1ccc2c(c1)C(=O)OC2=O [compound 3, N-{5-[(cyclohexylmethyl)amino]-1,3,4-thiadiazol-2-yl}-1,3-dioxo-1,3-dihydro-2-benzofuran-5-carboxamide]
100%	CCCCCCCCCCCNc1nnc(NC(=O)c2ccc3c(c2)C(=O)OC3=O)s1 [compound 4, 1,3-dioxo-N-[5-(undecylamino)-1,3,4-thiadiazol-2-yl]-1,3-dihydro-2-benzofuran-5-carboxamide]
99.9%	CCCCCCCC/C=C/CCCCCCCC(=O)Nc1nnc(NCCC2CCCN2C)s1 (centres unmarked) [compound 5, (E)-N-(5-{[2-(1-methyl-2-pyrrolidinyl)ethyl]amino}-1,3,4-thiadiazol-2-yl)-9-octadecenamide]
99.9%	O=C(Nc1nnc(NCCNc2ccccc2)s1)c1ccc2c(c1)C(=O)OC2=O [compound 6, N-{5-[(2-anilinoethyl)amino]-1,3,4-thiadiazol-2-yl}-1,3-dioxo-1,3-dihydro-2-benzofuran-5-carboxamide]
99.8%	O=C(Nc1nnc(NCc2ccc(F)cc2)s1)c1ccc2c(c1)C(=O)OC2=O [compound 7, N-{5-[(4-fluorobenzyl)amino]-1,3,4-thiadiazol-2-yl}-1,3-dioxo-1,3-dihydro-2-benzofuran-5-carboxamide]
99.8%	O=C(Nc1nnc(NCc2cccc3ccccc23)s1)c1ccc2c(c1)C(=O)OC2=O [compound 8, N-{5-[(1-naphthylmethyl)amino]-1,3,4-thiadiazol-2-yl}-1,3-dioxo-1,3-dihydro-2-benzofuran-5-carboxamide]
99.8%	O=C(Nc1nnc(NCCc2cccs2)s1)c1ccc2c(c1)C(=O)OC2=O [compound 9, 1,3-dioxo-N-(5-{[2-(2-thienyl)ethyl]amino}-1,3,4-thiadiazol-2-yl)-1,3-dihydro-2-benzofuran-5-carboxamide]
99.7%	O=C(Nc1nnc(NCCc2c[nH]c3ccccc23)s1)c1ccc2c(c1)C(=O)OC2=O [compound 10, N-(5-{[2-(1H-indol-3-yl)ethyl]amino}-1,3,4-thiadiazol-2-yl)-1,3-dioxo-1,3-dihydro-2-benzofuran-5-carboxamide]
99.6%	O=C(Nc1nnc(NCCCCc2ccccc2)s1)c1ccc2c(c1)C(=O)OC2=O [compound 11, 1,3-dioxo-N-{5-[(4-phenylbutyl)amino]-1,3,4-thiadiazol-2-yl}-1,3-dihydro-2-benzofuran-5-carboxamide]
99.5%	O=C(Nc1nnc(NCc2ccc(Cl)c(Cl)c2)s1)c1ccc2c(c1)C(=O)OC2=O [compound 12, N-{5-[(3,4-dichlorobenzyl)amino]-1,3,4-thiadiazol-2-yl}-1,3-dioxo-1,3-dihydro-2-benzofuran-5-carboxamide]
99.3%	O=C(Nc1nnc(NCCC(c2ccccc2)c2ccccc2)s1)c1ccc2c(c1)C(=O)OC2=O [compound 13, N-{5-[(3,3-diphenylpropyl)amino]-1,3,4-thiadiazol-2-yl}-1,3-dioxo-1,3-dihydro-2-benzofuran-5-carboxamide]
99%	CCCCCCCC/C=C/CCCCCCCC(=O)Nc1nnc(NCCCN2CCN(C)CC2)s1 [compound 14, (E)-N-(5-{[3-(4-methylpiperazino)propyl]amino}-1,3,4-thiadiazol-2-yl)-9-octadecenamide]
